From the OPERA property sets (Mansouri et al. 2018)
Values after ≈ are worked out from the molar mass of the structure shown.

Conditions: not given

Q: With `O=C1OC(c2ccc(O)cc2)(c2ccc(O)cc2)c2ccccc21` as the molecule, how does the solubility read?
A: Its solubility is 1.26 mM (≈ 400 µg/mL).

Q: Which solubility does the source give for `NC(=O)NC1NC(=O)NC1=O` (stereo not drawn) here?
A: The solubility was 33.3 mM (≈ 5260 µg/mL).

Q: With `CC(C)(C)NCC(O)c1ccc(O)c(CO)c1` (stereo not drawn) as the molecule, how does the solubility read?
A: Its solubility is 59.3 mM (≈ 14200 µg/mL).

Same assay, conditions: 20 °C

Q: For `O=[N+]([O-])c1ccc(Cl)cc1`, which solubility is on record?
A: The solubility was 1.43 mM (≈ 225 µg/mL).

Q: Which solubility does the source give for `CNC(=O)Oc1cc(C(C)(C)C)cc(C(C)(C)C)c1` here?
A: Its solubility is 0.057 mM (≈ 15 µg/mL).

Q: Which solubility does the source give for `Nc1nc(N)nc(N)n1` here?
A: The solubility was 25.6 mM (≈ 3230 µg/mL).

Q: Which solubility does the source give for `O=[N+]([O-])c1ccc(Cl)c(Cl)c1` here?
A: The solubility was 0.63 mM (≈ 121 µg/mL).

Q: With `O=[N+]([O-])c1cccc(Cl)c1Cl` as the molecule, how does the solubility read?
A: Its solubility is 0.325 mM (≈ 62.4 µg/mL).

Q: For `CC(C)Br`, which solubility is on record?
A: The solubility was 24.6 mM (≈ 3020 µg/mL).

Q: Which solubility does the source give for `CC(=O)OC(C)=O` here?
A: The solubility was 1180 mM (≈ 120000 µg/mL).

Q: Which solubility does the source give for `CCCCCCC(C)=O` here?
A: The solubility was 7.02 mM (≈ 900 µg/mL).

Q: With `C#CC(C)OC(=O)Nc1cccc(Cl)c1` (stereo not drawn) as the molecule, how does the solubility read?
A: The solubility was 2.41 mM (≈ 540 µg/mL).

Q: Which solubility does the source give for `Cc1cc(O)cc(C)c1Cl` here?
A: Its solubility is 1.6 mM (≈ 250 µg/mL).

Q: Which solubility does the source give for `CC1(C)C(=O)N(Cl)C(=O)N1Cl` here?
A: Its solubility is 2.54 mM (≈ 500 µg/mL).

Q: With `CCCBr` as the molecule, how does the solubility read?
A: Its solubility is 19.9 mM (≈ 2450 µg/mL).

Q: Which solubility does the source give for `S=C=S` here?
A: Its solubility is 15.5 mM (≈ 1180 µg/mL).

Q: For `C#C`, which solubility is on record?
A: Its solubility is 46.1 mM (≈ 1200 µg/mL).

Q: With `CCOCCOC(C)=O` as the molecule, how does the solubility read?
A: Its solubility is 1870 mM (≈ 247000 µg/mL).

Q: For `c1ccc(Nc2ccccc2)cc1`, which solubility is on record?
A: Its solubility is 0.313 mM (≈ 53 µg/mL).

Q: For `O=[N+]([O-])c1cccc(Cl)c1`, which solubility is on record?
A: The solubility was 1.73 mM (≈ 273 µg/mL).

Q: For `CCOP(=S)(OCC)SCC(=O)NC(C)C`, which solubility is on record?
A: Its solubility is 8.76 mM (≈ 2500 µg/mL).

Q: For `CCNc1nc(NC(C)(C)C)nc(SC)n1`, which solubility is on record?
A: Its solubility is 0.104 mM (≈ 25 µg/mL).

Q: For `BrCCCBr`, which solubility is on record?
A: The solubility was 8.42 mM (≈ 1700 µg/mL).

Q: For `CCCCC(C)=O`, which solubility is on record?
A: The solubility was 175 mM (≈ 17500 µg/mL).

Same assay, conditions: 22 °C

Q: Which solubility does the source give for `O=[N+]([O-])C(Br)(CO)CO` here?
A: Its solubility is 1250 mM (≈ 250000 µg/mL).

Q: For `N[C@@H](Cc1ccccc1)C(=O)O` (racemic), which solubility is on record?
A: Its solubility is 134 mM (≈ 22100 µg/mL).

Same assay, conditions: 23 °C

Q: Which solubility does the source give for `CC(Oc1cc(Cl)c(Cl)cc1Cl)C(=O)O` (stereo not drawn) here?
A: The solubility was 0.341 mM (≈ 92 µg/mL).

Same assay, conditions: 24 °C

Q: Which solubility does the source give for `Cc1ccc2cc3c(ccc4ccccc43)cc2c1` here?
A: The solubility was 0.000153 mM (≈ 0.037 µg/mL).

Q: With `CCOP(=S)(OCC)Oc1nc(Cl)c(Cl)cc1Cl` as the molecule, how does the solubility read?
A: The solubility was 0.00319 mM (≈ 1.12 µg/mL).

Q: For `CN1CCN(CCCN2c3ccccc3Sc3ccc(Cl)cc32)CC1`, which solubility is on record?
A: The solubility was 0.04 mM (≈ 15 µg/mL).

Q: For `COP(=S)(OC)SCC(=O)N(C)C=O`, which solubility is on record?
A: Its solubility is 10.1 mM (≈ 2600 µg/mL).

Q: With `CC[C@H](C)[C@H](N)C(=O)O` (racemic) as the molecule, how does the solubility read?
A: Its solubility is 262 mM (≈ 34400 µg/mL).

Same assay, conditions: 25 °C

Q: With `Nc1ccccc1` as the molecule, how does the solubility read?
A: The solubility was 387 mM (≈ 36000 µg/mL).

Q: For `C[C@]12CC[C@H]3[C@@H](CCC4=CC(=O)CC[C@@H]43)[C@@H]1CC[C@@H]2O`, which solubility is on record?
A: The solubility was 11.3 mM (≈ 3090 µg/mL).

Q: Which solubility does the source give for `Cc1ccc(O)cc1` here?
A: The solubility was 199 mM (≈ 21500 µg/mL).

Q: Which solubility does the source give for `ClC1(Cl)C2(Cl)C3(Cl)C4(Cl)C(Cl)(Cl)C5(Cl)C3(Cl)C1(Cl)C5(Cl)C24Cl` (stereo not drawn) here?
A: Its solubility is 0.000156 mM (≈ 0.085 µg/mL).

Q: With `CC(C)OC(=O)Nc1ccccc1` as the molecule, how does the solubility read?
A: Its solubility is 0.999 mM (≈ 179 µg/mL).

Q: Which solubility does the source give for `CCCCC(=O)O` here?
A: Its solubility is 384 mM (≈ 39200 µg/mL).

Q: For `O=Cc1ccco1`, which solubility is on record?
A: The solubility was 801 mM (≈ 77000 µg/mL).

Q: Which solubility does the source give for `O=Cc1ccccc1` here?
A: Its solubility is 61.9 mM (≈ 6570 µg/mL).

Q: For `O=C(Nc1cccc(Cl)c1)OCC#CCCl`, which solubility is on record?
A: Its solubility is 0.0426 mM (≈ 11 µg/mL).

Q: For `ClC(Cl)=C(c1ccc(Cl)cc1)c1ccc(Cl)cc1`, which solubility is on record?
A: The solubility was 0.000126 mM (≈ 0.04 µg/mL).

Q: Which solubility does the source give for `CC(C)(C)C` here?
A: The solubility was 0.46 mM (≈ 33.2 µg/mL).

Q: Which solubility does the source give for `Clc1ccc(C(c2ccc(Cl)cc2)C(Cl)(Cl)Cl)cc1` here?
A: Its solubility is 1.55e-05 mM (≈ 0.0055 µg/mL).

Q: With `Oc1ncnc2[nH]ncc12` as the molecule, how does the solubility read?
A: The solubility was 4.18 mM (≈ 569 µg/mL).

Q: Which solubility does the source give for `CC[N+](=O)[O-]` here?
A: The solubility was 626 mM (≈ 47000 µg/mL).

Q: For `CCN(CC)c1c([N+](=O)[O-])cc(C(F)(F)F)c(N)c1[N+](=O)[O-]`, which solubility is on record?
A: The solubility was 0.00341 mM (≈ 1.1 µg/mL).

Q: For `Cn1c(=O)c2[nH]cnc2n(C)c1=O`, which solubility is on record?
A: The solubility was 40.9 mM (≈ 7360 µg/mL).

Q: Which solubility does the source give for `C[C@]12CCC(=O)C=C1CC[C@@H]1[C@@H]2CC[C@@]2(C)[C@H]1CC[C@]2(C)O` here?
A: Its solubility is 0.112 mM (≈ 33.9 µg/mL).

Q: With `CCCCc1ccccc1` as the molecule, how does the solubility read?
A: Its solubility is 0.0879 mM (≈ 11.8 µg/mL).

Q: With `Cc1cccc(O)c1` as the molecule, how does the solubility read?
A: Its solubility is 210 mM (≈ 22700 µg/mL).

Q: For `CCCCCC(=O)O`, which solubility is on record?
A: Its solubility is 88.7 mM (≈ 10300 µg/mL).

Q: For `CCCC(C)(COC(N)=O)COC(N)=O`, which solubility is on record?
A: The solubility was 21.5 mM (≈ 4700 µg/mL).

Q: Which solubility does the source give for `CCCCCCCCC=O` here?
A: Its solubility is 0.675 mM (≈ 96 µg/mL).

Q: For `C1=CCCCC1`, which solubility is on record?
A: Its solubility is 2.59 mM (≈ 213 µg/mL).

Q: Which solubility does the source give for `CCNc1nc(NC(C)C)nc(SC)n1` here?
A: Its solubility is 0.919 mM (≈ 209 µg/mL).

Q: For `CCCCCCCCCCCCCCCCO`, which solubility is on record?
A: Its solubility is 9.69e-05 mM (≈ 0.0235 µg/mL).

Q: Which solubility does the source give for `Nc1ccc2ccccc2c1` here?
A: Its solubility is 1.32 mM (≈ 189 µg/mL).

Q: For `O=C(O)c1cccnc1C(=O)O`, which solubility is on record?
A: Its solubility is 65.8 mM (≈ 11000 µg/mL).

Q: Which solubility does the source give for `c1ccc(-c2ccccc2)cc1` here?
A: The solubility was 0.045 mM (≈ 6.94 µg/mL).

Q: For `CC12CCC(CC1=O)C2(C)C` (stereo not drawn), which solubility is on record?
A: The solubility was 2.63 mM (≈ 400 µg/mL).

Q: With `Cn1cnc2c1c(=O)[nH]c(=O)n2C` as the molecule, how does the solubility read?
A: Its solubility is 1.83 mM (≈ 330 µg/mL).

Q: Which solubility does the source give for `CCC1(CCC(C)C)C(=O)NC(=O)NC1=O` here?
A: The solubility was 2.67 mM (≈ 603 µg/mL).

Q: With `CCOC(=O)c1ccc(O)cc1` as the molecule, how does the solubility read?
A: The solubility was 4.91 mM (≈ 816 µg/mL).

Q: For `CCCCCCCO`, which solubility is on record?
A: The solubility was 14.4 mM (≈ 1670 µg/mL).

Q: For `Oc1cccc(O)c1O`, which solubility is on record?
A: Its solubility is 4020 mM (≈ 507000 µg/mL).

Q: Which solubility does the source give for `N[C@@H](Cc1c[nH]c2ccccc12)C(=O)O` here?
A: Its solubility is 65.6 mM (≈ 13400 µg/mL).

Q: With `Clc1ccc(Cl)cc1` as the molecule, how does the solubility read?
A: The solubility was 0.553 mM (≈ 81.3 µg/mL).

Q: For `O=C(O)c1ccccc1C(=O)O`, which solubility is on record?
A: Its solubility is 42.1 mM (≈ 6990 µg/mL).

Q: With `COc1cc(Cl)c(OC)cc1Cl` as the molecule, how does the solubility read?
A: The solubility was 0.0386 mM (≈ 8 µg/mL).

Q: With `CCNC(=O)CSP(=S)(OC)OC` as the molecule, how does the solubility read?
A: The solubility was 34.9 mM (≈ 8500 µg/mL).

Q: Which solubility does the source give for `O=C(O)c1cccc([N+](=O)[O-])c1` here?
A: Its solubility is 21.4 mM (≈ 3580 µg/mL).

Q: With `CC(C)C[C@H](N)C(=O)O` as the molecule, how does the solubility read?
A: Its solubility is 141 mM (≈ 18500 µg/mL).

Q: Which solubility does the source give for `OC(O)C(Cl)(Cl)Cl` here?
A: The solubility was 4790 mM (≈ 793000 µg/mL).

Q: With `CCC(C)CC` as the molecule, how does the solubility read?
A: Its solubility is 0.208 mM (≈ 17.9 µg/mL).

Same assay, conditions: 30 °C

Q: Which solubility does the source give for `CCOC(=O)c1ccc(N)cc1` here?
A: Its solubility is 7.93 mM (≈ 1310 µg/mL).

Q: For `Nc1ccc(C(=O)O)cc1`, which solubility is on record?
A: Its solubility is 44.6 mM (≈ 6110 µg/mL).

Q: Which solubility does the source give for `CCC1(c2ccccc2)CCC(=O)NC1=O` (stereo not drawn) here?
A: The solubility was 4.6 mM (≈ 999 µg/mL).
